Measurements taken from patent US20100331315A1, “RHODANINES AND RELATED HETEROCYCLES AS KINASE INHIBITORS” (priority 2009, published 2010).
Like-named read-outs stand apart in the source and are kept apart here.

Columns and labels:
recombinant PIM-1 = recombinant PIM-1 (Homo sapiens, UniProt P11309); test: PIM-1 assay (33P-ATP filter plate); assay type: biochemical; conditions: read-out: PIM1: IC50
Protocol: The following procedure was used to assay the PIM-1 kinase activity of compounds of the invention. Other methods for assaying PIM-1 and other PIM kinases, as well as methods to assay for activity against the various kinases are known in the art.
In a final reaction volume of 50 ul, recombinant PIM-1 (1 ng) was incubated with 12 mM MOPS pH 7.0, 0.4 mM EDTA, glycerol 1%, brij 35 0.002%, 2-mercaptoethanol 0.02%, BSA 0.2 mg/ml, 100 uM KKRNRTLTK, 10 mM MgAcetate, 15 uM ATP, [γ-^33P-ATP] (specific activity approx. 500 cpm/pmol), DMSO 4% and test inhibitor compound at the required concentration. The reaction was initiated by the addition of the Magnesium ATP mixture. After 40 min incubation at 23° C., the reactions were quenched by the addition of 100 ul 0.75% Phosphoric acid, and the labeled peptide collected by filtration through a phosphocellulose filter plate. The plate was washed 4 times with 0.075% phosphoric acid (100 ul per well) and then, after the addition of scintillation fluid (20 ul per well), the counts were measured by a scintillation counter.

K-562 = test: Alamar Blue cell proliferation assay, K-562; assay type: cell-based; conditions: Homo sapiens
Protocol: (§1) A representative cell-proliferation assay protocol using Alamar Blue dye (stored at 4° C., use 20 ul per well) is described hereafter.
(§2) a. Split and trypsinize cells.
(§3) b. Count cells using hemocytometer.
(§4) c. Plate 4,000-5,000 cells per well in 100 μl of medium and seed into a 96-well plate according to the following plate layout. Add cell culture medium only to wells B10 to B12. Wells B1 to B9 have cells but no compound added.
(§5) d. Add 100 μl of 2× drug dilution to each well in a concentration shown in the plate layout above. At the same time, add 100 μl of media into the control wells (wells B10 to B12). Total volume is 200 μl/well.
(§6) e. Incubate four (4) days at 37° C., 5% CO2 in a humidified incubator.
(§7) f. Add 20 μl Alamar Blue reagent to each well.
(§8) g. Incubate for four (4) hours at 37° C., 5% CO2 in a humidified incubator.
(§9) h. Record fluorescence at an excitation wavelength of 544 nm and emission wavelength of 590 nm using a microplate reader.
(§10) In the assays, cells are cultured with a test compound for approximately four days, the dye is then added to the cells and fluorescence of […] dye is detected after approximately four hours. Different types of cells can be utilized in the assays (e.g., HCT-116 human colorectal carcinoma cells, PC-3 human prostatic cancer cells and MiaPaca human pancreatic carcinoma cells).

MV-4-11 = test: Alamar Blue cell proliferation assay, MV-4-11; assay type: cell-based; conditions: Homo sapiens, MV4-11, MV-4-11, Table 1, read-out: AB: MV-4-11 IC50
Protocol: as §1, §2, §3, §4, §5, §6, §7, §8, §9, §10

MDAMB231 = test: Alamar Blue cell proliferation assay, MDAMB231; assay type: cell-based; conditions: Homo sapiens, MDA-MB-231, MDAMB231, Table 1, read-out: AB: MDAMB231 IC50
Protocol: as §1, §2, §3, §4, §5, §6, §7, §8, §9, §10

[1] = tested on: MiaPaca human pancreatic carcinoma cells; test: Alamar Blue cell proliferation assay, MiaPaCa; assay type: cell-based; conditions: MIA PaCa-2, Table 1, read-out: AB: MiaPaCa IC50
Protocol: as §1, §2, §3, §4, §5, §6, §7, §8, §9, §10

[2] = tested on: PC-3 human prostatic cancer cells; test: Alamar Blue cell proliferation assay, PC3; assay type: cell-based
Protocol: as §1, §2, §3, §4, §5, §6, §7, §8, §9, §10

recombinant human CK2 = target: T1, recombinant human CK2 (Homo sapiens, UniProt P68400); test: CK2 assay (cell-free, 33P-ATP filter plate); assay type: biochemical
T1 construct: purchased Upstate
Protocol: Modulatory activity of compounds described herein was assessed in vitro in cell-free CK2 assays by the following method.
Test compounds in aqueous solution were added at a volume of 10 microliters, to a reaction mixture comprising 10 microliters Assay Dilution Buffer (ADB; 20 mM MOPS, pH 7.2, 25 mM beta-glycerolphosphate, 5 mM EGTA, 1 mM sodium orthovanadate and 1 mM dithiothreitol), 10 microliters of substrate peptide (RRRDDDSDDD, dissolved in ADB at a concentration of 1 mM), 10 microliters of recombinant human CK2 (25 ng dissolved in ADB; Upstate). Reactions were initiated by the addition of 10 microliters of ATP Solution (90% 75 mM MgCl2, 75 micromolar ATP dissolved in ADB; 10% [γ-^33P]ATP (stock 1 mCi/100 μl; 3000 Ci/mmol (Perkin Elmer) and maintained for 10 minutes at 30 degrees C. The reactions were quenched with 100 microliters of 0.75% phosphoric acid, then transferred to and filtered through a phosphocellulose filter plate (Millipore). After washing each well 5 times with 0.75% phosphoric acid, the plate was dried under vacuum for 5 min and, following the addition of 15 ul of scintillation fluid to each well, the residual radioactivity was measured using a Wallac luminescence counter.

[3] = K562, K-562, Table 1, read-out: AB: K-562 IC50
[4] = PC-3, PC3, Table 1, read-out: AB: PC3

Sequence of recombinant PIM-1 (P11309 whole entry): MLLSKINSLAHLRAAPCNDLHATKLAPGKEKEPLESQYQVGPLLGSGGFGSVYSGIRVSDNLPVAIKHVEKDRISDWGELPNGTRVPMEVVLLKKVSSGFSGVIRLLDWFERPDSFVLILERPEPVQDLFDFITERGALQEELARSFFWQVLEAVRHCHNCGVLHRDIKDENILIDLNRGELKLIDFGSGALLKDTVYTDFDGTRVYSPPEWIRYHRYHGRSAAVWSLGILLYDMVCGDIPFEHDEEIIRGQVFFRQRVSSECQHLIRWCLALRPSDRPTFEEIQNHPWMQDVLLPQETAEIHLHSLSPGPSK
T1 sequence (P68400 whole entry): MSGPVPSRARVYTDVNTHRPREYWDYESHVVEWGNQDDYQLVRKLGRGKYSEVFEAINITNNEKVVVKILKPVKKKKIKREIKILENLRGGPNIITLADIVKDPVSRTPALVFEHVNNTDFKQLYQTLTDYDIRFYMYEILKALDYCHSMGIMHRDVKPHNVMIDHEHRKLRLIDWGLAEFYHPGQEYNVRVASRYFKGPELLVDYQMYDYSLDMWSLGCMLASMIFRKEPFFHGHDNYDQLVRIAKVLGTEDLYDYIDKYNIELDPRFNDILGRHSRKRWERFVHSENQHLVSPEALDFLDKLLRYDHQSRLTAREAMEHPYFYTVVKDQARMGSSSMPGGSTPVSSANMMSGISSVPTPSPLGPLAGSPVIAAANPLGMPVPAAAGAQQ
T1 sequence (P67870 whole entry partner): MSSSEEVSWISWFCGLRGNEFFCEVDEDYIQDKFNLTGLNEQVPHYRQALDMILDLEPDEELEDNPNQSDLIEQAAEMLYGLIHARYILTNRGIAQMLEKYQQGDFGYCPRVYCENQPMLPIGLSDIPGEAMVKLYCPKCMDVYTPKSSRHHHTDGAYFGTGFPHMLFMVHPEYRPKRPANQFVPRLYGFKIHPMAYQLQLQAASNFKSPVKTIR

Row | Structure (SMILES) | IC50 (recombinant PIM-1; Table 1) | IC50 (K-562; [3]) | IC50 (MDAMB231) | IC50 [1] | IC50 [2, 4] | IC50 (recombinant human CK2; Table 1) | further results
1 | CN1CCN(C(=O)c2ccc(-c3ccc(/C=C4\SC(=S)NC4=O)o3)cc2)CC1 | 64 nM | > 10000 nM | > 10000 nM | > 10000 nM | > 30000 nM | – | IC50 (MV-4-11): > 10000 nM
2 | O=C1NC(=S)S/C1=C\c1ccc(-c2cccc(C(=O)Nn3cnnc3)c2)o1 | 47 nM | > 10000 nM | > 10000 nM | > 10000 nM | > 30000 nM | 281 nM | –
3 | NS(=O)(=O)c1ccc(-c2ccc(/C=C3\SC(=O)NC3=O)o2)cc1 | – | – | – | – | – | – | IC50 (recombinant human CK2; Table 2): 35 nM; IC50 (recombinant PIM-1; Table 2): 51 nM; IC50 ([2]; PC3, Table 2, read-out: AB: PC3 IC50): > 10000 nM
4 | O=C1NC(=O)/C(=C\c2ccc(-c3ccc(C(=O)O)cc3)o2)N1 | – | – | – | – | – | – | IC50 (recombinant human CK2; Table 3): 166 nM; IC50 (recombinant PIM-1; Table 3): 805 nM
5 | COCCNC(=O)c1cc(-c2ccc(/C=C3\SC(=S)NC3=O)o2)ccc1Cl | 42 nM | > 10000 nM | > 10000 nM | > 10000 nM | > 10000 nM | 54 nM | –
6 | CCN(CC)CCNC(=O)c1ccc(Cl)c(-c2ccc(/C=C3\SC(=S)NC3=O)o2)c1 | < 1 nM | 64 nM | > 10000 nM | – | > 10000 nM | 3 nM | IC50 (MV-4-11): < 30 nM
7 | CN1CCCN(C(=O)c2cccc(-c3ccc(/C=C4\C(=O)NC(=O)N4C)o3)c2)CC1 | – | – | – | – | – | – | IC50 (recombinant human CK2; Table 3): 1820 nM; IC50 (recombinant PIM-1; Table 3): > 5000 nM
8 | CN1CCCN(C(=O)c2ccccc2-c2ccc(/C=C3\SC(=S)NC3=O)o2)CC1 | 1300 nM | – | – | – | – | > 5000 nM | –
9 | O=C1NC(=S)S/C1=C\c1ccc(-c2ccccc2C(=O)O)o1 | 4330 nM | – | – | – | – | 3790 nM | –
10 | O=C1NC(=O)/C(=C\c2ccc(-c3cccc(C(=O)O)c3)o2)N1 | – | – | – | – | – | – | IC50 (recombinant human CK2; Table 3): 2060 nM; IC50 (recombinant PIM-1; Table 3): > 5000 nM
11 | CCN1CCCC1CNC(=O)c1ccc(-c2ccc(/C=C3\SC(=S)NC3=O)o2)cc1 (stereo not shown) | 28 nM | > 10000 nM | > 10000 nM | 3950 nM | > 30000 nM | – | IC50 (MV-4-11): 210 nM
12 | COCCNC(=O)c1ccc(Cl)c(-c2ccc(/C=C3\SC(=S)NC3=O)o2)c1 | 3 nM | 7620 nM | > 10000 nM | > 10000 nM | > 10000 nM | 10 nM | –
13 | CN1CCC(N(C)C(=O)c2ccc(-c3ccc(/C=C4\SC(=S)NC4=O)o3)cc2)C1 (stereo not shown) | 37 nM | > 10000 nM | > 10000 nM | > 10000 nM | > 30000 nM | – | IC50 (MV-4-11): > 10000 nM
14 | CN1CCCN(C(=O)c2ccc(-c3ccc(/C=C4\SC(=S)NC4=O)o3)cc2)CC1 | 25 nM | > 10000 nM | > 10000 nM | > 10000 nM | > 30000 nM | – | IC50 (MV-4-11): > 10000 nM
15 | CCN(CC)CCNC(=O)c1cc(-c2ccc(/C=C3\SC(=S)NC3=O)o2)ccc1Cl | 2 nM | > 10000 nM | > 10000 nM | > 10000 nM | > 10000 nM | 10 nM | –
16 | CN1CCCN(c2cncc(-c3cccc(/C=C4\SC(=S)NC4=O)c3)n2)CC1 | – | – | – | – | – | – | IC50 (recombinant human CK2; Table 4): 1 nM; IC50 (recombinant PIM-1; Table 4): < 1 nM; IC50 (K-562; K562, K-562, Table 4, read-out: AB: K-562 IC50): < 30 nM; IC50 ([2]; PC3, Table 4, read-out: AB: PC3 IC50): 3460 nM
17 | CN1CCCN(c2cncc(-c3ccc(/C=C4\NC(=O)NC4=O)o3)n2)CC1 | – | – | – | – | – | – | IC50 (recombinant human CK2; Table 4): 229 nM; IC50 (recombinant PIM-1; Table 4): 1850 nM
